Measured values from patent US20230271933A1, “HETEROCYCLIC IMMUNOMODULATOR” (Beijing Innocare Pharma Tech Co., Ltd., priority 2020, published 2023).

Experiments:
TNFα = assay: Inhibition of TNFα secretion in LPS-stimulated hPBMC (ELISA); assay type: cell-based; details: Homo sapiens, overnight, read-out: IC50 (nM) for the inhibition of the TNFa secretion
Method: The immunomodulatory function of the compound of the present invention was evaluated by detecting its effect on the secretion amount of TNFα and IL-2 in cells from the human peripheral blood mononuclear cells (hPBMC) by the enzyme linked immunosorbent assay (ELISA) method.
The peripheral blood of healthy volunteers was collected by using EDTA anticoagulant tubes, and diluted with phosphate buffered saline (PBS) containing 2% fetal bovine serum (Gibco, Cat. No. 10099-141) in an equal volume ratio. 30 mL of the resulting diluted sample was transferred into a Sepmate-50 centrifuge tube (Stemcell, Cat. No. 86450) to which 15 mL of a density-gradient centrifugation liquid (Sigma, Cat. No. 10771) had been added in advance, and centrifuged at room temperature at 1200×g for 10 minutes. The liquid containing PBMC in the upper layer was transferred to a new 50-mL centrifuge tube, and centrifuged at room temperature at 300×g for 8 minutes. The supernatant was discarded, and the resulting PBMC was resuspended to 5×10^6/mL by using RPMI 1640 medium (Gibco, Cat. No. 72400-047). 80 μL of the resulting suspension was added to each well in a 96-well plate.
Each concentration was further diluted 50-fold with RPMI 1640 medium. 10 μL of each compound solution was added into the cells in the above 96-well plate. The 96-well plate was placed in an incubator, and the cells were cultured at 37° C. and 5% CO2 for 1 hour. 10 μL of LPS (Sigma, Cat. No. L-2880) with a concentration of 100 ng/mL was added, and the cells were continuously cultured in the incubator at 37° C. and 5% CO2 overnight. Supernatants were collected for the detection of TNFα.
TNFα and IL-2 were detected respectively according to each instruction of the ELISA kits (R&D, Cat. No. DY210 and DY202, respectively) to obtain the OD450 values for each well. The group containing 0.2% DMSO medium was used as 0% inhibition or stimulation. The XLfit software was used to plot the compound inhibition or stimulation curve and calculate the corresponding IC50 or EC50.

[1] = biological target: hERG potassium ion channel (Homo sapiens, UniProt Q12809); assay: Blockade of the hERG potassium ion channel (whole cell patch clamp); assay type: cell-based; details: HEK293 cells stably overexpressing hERG, pH 7.4, tail current, read-out: The percentage of the inhibition to the hERG current at the solubility of 3 μM (n = 2)
Chain of hERG potassium ion channel (Q12809 whole entry): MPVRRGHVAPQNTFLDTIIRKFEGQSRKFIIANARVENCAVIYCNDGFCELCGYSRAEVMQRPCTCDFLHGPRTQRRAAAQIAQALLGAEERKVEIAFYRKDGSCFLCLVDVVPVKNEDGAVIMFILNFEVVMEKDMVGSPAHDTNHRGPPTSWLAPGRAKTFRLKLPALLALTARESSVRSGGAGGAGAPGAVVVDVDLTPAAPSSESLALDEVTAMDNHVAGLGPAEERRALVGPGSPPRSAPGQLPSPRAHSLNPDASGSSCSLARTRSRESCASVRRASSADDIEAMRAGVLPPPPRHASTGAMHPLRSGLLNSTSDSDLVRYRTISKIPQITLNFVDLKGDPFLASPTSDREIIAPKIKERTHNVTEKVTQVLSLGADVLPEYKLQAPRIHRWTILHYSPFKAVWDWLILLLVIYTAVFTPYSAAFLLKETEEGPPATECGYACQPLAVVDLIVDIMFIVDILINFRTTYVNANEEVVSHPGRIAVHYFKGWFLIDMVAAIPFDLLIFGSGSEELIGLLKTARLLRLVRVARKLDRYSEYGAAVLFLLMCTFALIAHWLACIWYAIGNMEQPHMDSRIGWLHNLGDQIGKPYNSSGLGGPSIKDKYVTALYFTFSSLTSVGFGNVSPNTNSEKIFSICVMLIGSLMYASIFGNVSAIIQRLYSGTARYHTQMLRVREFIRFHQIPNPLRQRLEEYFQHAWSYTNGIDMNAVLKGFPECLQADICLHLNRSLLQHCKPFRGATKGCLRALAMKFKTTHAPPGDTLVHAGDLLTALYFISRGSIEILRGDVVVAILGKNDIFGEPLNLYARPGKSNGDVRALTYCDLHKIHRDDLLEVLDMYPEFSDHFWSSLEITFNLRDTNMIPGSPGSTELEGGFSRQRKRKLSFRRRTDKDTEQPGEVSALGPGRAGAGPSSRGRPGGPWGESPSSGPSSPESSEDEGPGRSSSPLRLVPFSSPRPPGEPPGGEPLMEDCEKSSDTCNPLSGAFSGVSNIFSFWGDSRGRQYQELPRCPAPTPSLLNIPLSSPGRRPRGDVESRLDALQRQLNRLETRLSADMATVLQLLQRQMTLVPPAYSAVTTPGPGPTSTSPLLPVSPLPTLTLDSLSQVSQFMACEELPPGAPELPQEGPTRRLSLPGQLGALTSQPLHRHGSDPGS
Method: The effect of the compound of the present invention on possible arrhythmias was assessed by determining the blockade of the hERG potassium ion channel.
The experiment method was summarized as follows: • Extracellular fluid: 140 mM NaCl, 3.5 mM KCl, 1 mM MgCl2, 2 mM CaCl2, 10 mM D-glucose, 10 mM HEPES, 1.25 mM NaH2PO4, pH=7.4. • Electrode internal solution: 20 mM KCl, 115 mM K-aspartate, 1 mM MgCl2, 5 mM EGTA, 10 mM HEPES, 2 mM Na2-ATP, pH=7.2. • Compound solution: the compound to be tested was dissolved in DMSO and prepared into a stock solution having a concentration of 10 mM, then diluted into the concentration of 3 mM with DMSO, and then diluted into a solution having a concentration of 3 μM with the extracellular solution for subsequent use. • Cell culture: the HEK293 cell line with the stable hERG potassium channel overexpression (Creacell, Cat. No. A-0320) was cultured in a DMEM medium (Gibco, Cat. No. 11995-065) containing […] (Gibco, Cat. No. 1428478) and 0.8 mg/mL G418 (Amresco, Cat. No. E859-5G) at the culture temperature of 37° C. under the carbon dioxide concentration of […]. The spent medium was removed and the cells were washed once with PBS (Gibco, Cat. No. 1009-141). Then 1 mL TrypLE™ Express solution (Gibco, Cat. No. 12604021) was added and the cells were incubated at 37° C. […]. When the cells were detached from the bottom of the dish, 5 mL of complete medium preheated at 37° C. was added. The cell suspension was transferred to a sterile centrifuge tube and centrifuged at 1000 rpm for 5 minutes before cell collection. Cells were inoculated in 6 cm cell culture dishes at the cell inoculation volume of 2.5*10^5 per dish (final volume: 5 mL). Before the patch clamp detection experiment, 3*10^3 cells were plated on the cover slips, cultured in 24-well plates (final volume: 500 μL), and detected 18 hours later. • Voltage stimulation protocol by recording the whole-cell hERG potassium current with the whole cell patch clamp: after forming a whole-cell seal, the cell membrane voltage was clamped at −80 mV. The clamping voltage was depolarized from −80 mV to −50 mV and maintained for 0.5 seconds (as leakage current detection), then stepped to 30 mV and maintained for 2.5 seconds, then quickly returned to −50 mV and maintained for 4 seconds to excite the hERG channel tail current (Peak tail current), the hERG potassium current was recorded every other 10 seconds. Experiment data were collected with EPC-10 amplifier (HEKA) and stored in PatchMaster (HEKA v2x73) software. • Determination: A capillary glass tube (Sutter Instruments) was drawn into a recording electrode with a microelectrode drawing instrument (Sutter Instruments). The cell-loaded cover slip was removed from the 24-well plate placed in the incubator and then placed under an inverted microscope. […] In the whole-cell recording mode, the slow capacitance compensation was performed and the membrane capacitance and the series resistance were recorded, during which the leakage compensation was not applied. After the hERG tail current recorded with the whole cell was stabilized for 3-5 minutes, 8 mL of the compound-free extracellular fluid (blank control) and 8 mL of 3 μM solution of the compound to be tested were sequentially flowed through the recording bath with the gravity perfusion to act on the cells for 5 minutes (or to the current stabilization). The current detected for each cell in the compound-free extracellular fluid was served as its own control. […]

Row | IC50 (TNFα) | Structure (SMILES) | inhibition at 5 min, 3 µM [1]
1 | 4.7 nM | C[C@H](c1ccc(COc2cccc3c2CN([C@H]2CCC(=O)NC2=O)C3=O)cc1)N1CCN(c2ncc(C#N)cc2F)CC1 [Compound 22, 6-(4-((R)-1-(4-(((2-((S)-2,6-dioxopiperidin-3-yl)-1-oxoisoindolin-4-yl)oxy)methyl)phenyl)-ethyl)piperazin-1-yl)-5-fluoronicotinonitrile] | 20%
2 | 2.8 nM | C[C@H](c1ccc(COc2cccc3c2CN([C@H]2CCC(=O)NC2=O)C3=O)cc1)N1CCN(c2ccc(C#N)cc2F)CC1 [Compound 6, 4-(4-((R)-1-(4-(((2-((S)-2,6-dioxopiperidin-3-yl)-1-oxoisoindolin-4-yl)oxy)methyl)phenyl)ethyl)piperazin-1-yl)-3-fluorobenzonitrile] | 52%
3 | 1.3 nM | C[C@H](c1ccc(COc2cccc3c2CN([C@H]2CCC(=O)NC2=O)C3=O)cc1)N1CCN(c2ccc(C#N)cn2)CC1 [Compound 16, 6-(4-((R)-1-(4-(((2-((S)-2,6-dioxopiperidin-3-yl)-1-oxoisoindolin-4-yl)oxy)methyl)phenyl)-ethyl)piperazin-1-yl)nicotinonitrile] | 58%
4 | 0.5 nM | C[C@H](c1ccc(COc2cccc3c2CN([C@H]2CCC(=O)NC2=O)C3=O)cc1)N1CCN(c2ccc(C#N)nc2)CC1 [Compound 21, 5-(4-((R)-1-(4-(((2-((S)-2,6-dioxopiperidin-3-yl)-1-oxoisoindolin-4-yl)oxy)methyl)phenyl)ethyl)piperazin-1-yl)-2-cyanopyridine] | 49%
